Measured values as given in PMC7315563, “Bioactive fluorenes. Part III: 2,7-dichloro-9H-fluorene-based thiazolidinone and azetidinone analogues as anticancer and antimicrobial against multidrug resistant strains agents” (BMC Chemistry, 2020).
Values after ≈ are worked out from the molar mass of the structure shown. Where two headings read alike, the source gives them in different places.

Key:
[1] = system: Escherichia coli (E. coli), multidrug resistant clinical isolate; test: agar well diffusion assay; type: cell-based; conditions: 24 h; for zone of inhibition at 500 µg/mL: 500 µg/mL of tested compound
Method in brief: (§1)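 Multidrug-resistant clinical isolates swabbed on Mueller–Hinton agar at about 1–5 × 10^5 CFU/mL; 0.5 cm wells received 50 μL compound at 500 μg/mL in 1% DMSO. Incubation 24 h, 37 °C for bacteria and C. albicans, 25 °C for Aspergillus; inhibition zone diameter measured in mm.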

[2] = system: Klebsiella pneumoniae (K. pneumoniae), multidrug resistant clinical isolate; test: agar well diffusion assay; type: cell-based; conditions: 24 h; for zone of inhibition at 500 µg/mL: 500 µg/mL of tested compound
Method in brief: as §1

[3] = system: Pseudomonas aeruginosa (P. aeruginosa), multidrug resistant clinical isolate; test: agar well diffusion assay; type: cell-based; conditions: 24 h; for zone of inhibition at 500 µg/mL: 500 µg/mL of tested compound
Method in brief: as §1

[4] = system: Staphylococcus aureus (S. aureus), multidrug resistant clinical isolate; test: agar well diffusion assay; type: cell-based; conditions: Staphylococcus aureus, 24 h; for zone of inhibition at 500 µg/mL: S. aureus, 500 µg/mL of tested compound
Method in brief: as §1

[5] = system: methicillin-resistant Staphylococcus aureus (MRSA); test: agar well diffusion assay; type: cell-based; conditions: Staphylococcus aureus, 24 h; for zone of inhibition at 500 µg/mL: 500 µg/mL of tested compound
Method in brief: as §1

[6] = system: E. coli; test: MIC by broth microdilution method (resazurin end point); type: cell-based; conditions: Escherichia coli, 24 h at 37 °C
Protocol: (§2) Determination of Minimum inhibitory concentrations (MIC) of flourene derivatives was done using broth microdilution method. The procedure involved preparation of twofold dilutions of the fluorene derivatives ranging from (500–7.8 μg/mL) in sterile Mueller–Hinton broth inside the wells of 96-well microplate (Sarstedt, Germany). The inoculums of test strains prepared from fresh overnight cultures were adjusted to 0.5 McFarland standards, which equals to 1–2 × 10^8 CFU/mL for bacteria, the procedure was done according to CLSI 2012 [42]. […] For this assay the positive control agents were vancomycin (range: 0.7–50 μg/mL), gentamicin (range: 0.15–10 μg/mL) and the negative control was 1% DMSO.
(§3) For proper determination of the MIC end point resazurin dye has been used. A stock solution of resazurin sodium salt powder (Titan Biotech) was prepared at 0.02% (wt/vol) in distilled water, sterilized by filtration through a […] filter into a sterile light protected container then stored protected from light at 4 °C for up to 1 week, or at − […] for long term use, then 10–15% resazurin solution of the total volume in wells was added to each well and incubation for 1–4 h at 37 °C was done. A change in color from blue to pink indicates the growth of bacteria, and MIC was defined as the lowest concentration of the drug that prevented this change in color.

[7] = system: MRSA; test: as above; type: cell-based; conditions: Staphylococcus aureus
Protocol: as §2, §3

[8] = system: S. aureus; test: as above; type: cell-based; conditions: Staphylococcus aureus
Protocol: as §2, §3

[9] = system: MDA-MB-231 human breast cancer cells; test: cell viability assay (MTT); type: cell-based; conditions: 24 h; for viability at 1 µg/mL: read-out: Validity (%) for sample concentrations (µg/mL) 1; for viability at 10 µg/mL: read-out: Validity (%) for sample concentrations (µg/mL) 10; for viability at 31.25 µg/mL: read-out: Validity (%) for sample concentrations (µg/mL) 31.25; for viability at 62.5 µg/mL: read-out: Validity (%) for sample concentrations (µg/mL) 62.5; for viability at 125 µg/mL: read-out: Validity (%) for sample concentrations (µg/mL) 125; for viability at 250 µg/mL: read-out: Validity (%) for sample concentrations (µg/mL) 250; for viability at 500 µg/mL: read-out: Validity (%) for sample concentrations (µg/mL) 500
Method in brief: (§4)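 24 h treatment, eight concentrations from 0 to 500 µg/mL, cells plated one day earlier at 5000/well in RPMI-1640 + 10% FBS. MTT endpoint, OD 570 nm.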

[10] = system: WI-38 human normal fibroblast cells; test: cell viability assay (MTT); type: cell-based; conditions: 24 h; for viability at 31.25 µg/mL: read-out: Validity (%) for sample concentrations (µg/mL) 31.25; for viability at 62.5 µg/mL: 62.50 µg/mL, read-out: Validity (%) for sample concentrations (µg/mL) 62.50; for viability at 125 µg/mL: read-out: Validity (%) for sample concentrations (µg/mL) 125; for viability at 250 µg/mL: read-out: Validity (%) for sample concentrations (µg/mL) 250; for viability at 500 µg/mL: read-out: Validity (%) for sample concentrations (µg/mL) 500
Method in brief: as §4

[11] = system: A549 human lung cancer cells; test: cell viability assay (MTT); type: cell-based; conditions: 24 h; for viability at 1 µg/mL: read-out: Validity (%) for sample concentrations (µg/mL) 1; for viability at 10 µg/mL: read-out: Validity (%) for sample concentrations (µg/mL) 10; for viability at 31.25 µg/mL: read-out: Validity (%) for sample concentrations (µg/mL) 31.25; for viability at 62.5 µg/mL: 62.50 µg/mL, read-out: Validity (%) for sample concentrations (µg/mL) 62.50; for viability at 125 µg/mL: read-out: Validity (%) for sample concentrations (µg/mL) 125; for viability at 250 µg/mL: read-out: Validity (%) for sample concentrations (µg/mL) 250; for viability at 500 µg/mL: read-out: Validity (%) for sample concentrations (µg/mL) 500; for viability at 1000 µg/mL: read-out: Validity (%) for sample concentrations (µg/mL) 1000
[12] = system: Acinetobacter baumannii (A. baumannii), multidrug resistant clinical isolate; test: agar well diffusion assay; type: cell-based; conditions: 24 h
Method in brief: as §1

[13] = system: K. pneumoniae; test: MIC by broth microdilution method (resazurin end point); type: cell-based; conditions: Klebsiella pneumoniae, 24 h at 37 °C
Protocol: as §2, §3

[14] = system: P. aeruginosa; test: as above; type: cell-based; conditions: Pseudomonas aeruginosa, 24 h at 37 °C
Protocol: as §2, §3

[15] = system: Aspergillus flavus (A. flavus); test: agar well diffusion assay; type: cell-based; conditions: 24 h, PC positive control fluconazole 25 µg/mL
Method in brief: as §1

[16] = system: Aspergillus niger (A. niger); test: agar well diffusion assay; type: cell-based; conditions: 24 h, PC positive control fluconazole 25 µg/mL
Method in brief: as §1

[17] = system: Candida albicans (C. albicans); test: agar well diffusion assay; type: cell-based; conditions: 24 h, PC positive control fluconazole 25 µg/mL
Method in brief: as §1

[18] = system: Streptococcus pneumoniae (S. pneumoniae), multidrug resistant clinical isolate; test: agar well diffusion assay; type: cell-based; conditions: Streptococcus pneumoniae, 24 h, read-out: Mean zone of inhibition
Method in brief: as §1

[19] = S. aureus, 24 h at 37 °C, read-out: MIC
[20] = PC positive control Gentamicin 10 µg/mL
[21] = read-out: Mean zone of inhibition

Row | MIC [6] [mg/L] | IC50 [9] [mg/L] | Compound | zone of inhibition at 500 µg/mL [1] [mm] | zone of inhibition at 500 µg/mL [3] [mm] | zone of inhibition at 500 µg/mL [4] [mm] | viability at 1 µg/mL [9] [%] | viability at 10 µg/mL [9] [%] | viability at 31.25 µg/mL [9] [%] | viability at 62.5 µg/mL [9] [%] | viability at 125 µg/mL [9] [%] | viability at 250 µg/mL [9] [%] | viability at 500 µg/mL [9] [%] | viability at 31.25 µg/mL [10] [%] | viability at 62.5 µg/mL [10] [%] | viability at 125 µg/mL [10] [%] | viability at 250 µg/mL [10] [%] | viability at 500 µg/mL [10] [%] | IC50 [10] [mg/L] | viability at 1 µg/mL [11] [%] | viability at 10 µg/mL [11] [%] | further results
1 | 31.2 (≈ 57.5 µM) | > 500 | COc1cc(C2C(Cl)C(=O)N2c2nc(-c3cc(Cl)cc4c3-c3ccc(Cl)cc3C4)cs2)ccc1O (centres unmarked) [6h, 3-chloro-1-(4-(2,7-dichloro-9H-fluoren-4-yl)thiazol-2-yl)-4-(4-hydroxy-3-methoxyphenyl)azetidin-2-one] | 22 | 8 | 12 | 94.3 | 90.4 | 85.8 | 77.8 | 73.6 | 68.5 | 65.8 | 85 | 70.6 | 60.4 | 51.8 | 49.4 | 487 (≈ 895 µM) | 89.5 | 80.9 | zone of inhibition at 500 µg/mL [2]: 3 mm; zone of inhibition at 500 µg/mL [5]: 15 mm; MIC ([7]; 24 h at 37 °C, read-out: MIC): 31.2 mg/L (≈ 57.5 µM); MIC [8, 19]: 62.5 mg/L (≈ 115 µM); viability at 31.25 µg/mL [11]: 79%; viability at 62.5 µg/mL [11]: 75.8%; viability at 125 µg/mL [11]: 63.5%; viability at 250 µg/mL [11]: 37.9%; viability at 500 µg/mL [11]: 33%; viability at 1000 µg/mL [11]: 30.3%; IC50 [11]: 192 mg/L (≈ 353 µM); melting point: 95 to 97 °C
2 | 0.3 (≈ 0.628 µM) |  | CNC(C)C1CCC(N)C(OC2C(N)CC(N)C(OC3OCC(C)(O)C(NC)C3O)C2O)O1 (centres unmarked) [Gentamicin, reference compound] |  |  |  |  |  |  |  |  |  |  |  |  |  |  |  |  |  |  | zone of inhibition at 10 µg/mL [12, 20]: 20 mm; zone of inhibition at 10 µg/mL [1, 20]: 28 mm; zone of inhibition at 10 µg/mL [2, 20]: 20 mm; zone of inhibition at 10 µg/mL [3, 20]: 30 mm; MIC [13]: 0.3 mg/L (≈ 0.628 µM); MIC [14]: 0.3 mg/L (≈ 0.628 µM)
3 | 31.2 (≈ 64.2 µM) | > 500 | O=C1C(Cl)C(c2ccc[nH]2)N1c1nc(-c2cc(Cl)cc3c2-c2ccc(Cl)cc2C3)cs1 (centres unmarked) [6l, 3-Chloro-1-(4-(2,7-dichloro-9H-fluoren-4-yl)thiazol-2-yl)-4-(1H-pyrrol-2-yl)azetidin-2-one] | 22 | 8 | 15 | 96.9 | 90.4 | 85.5 | 71.9 | 69.8 | 66.7 | 60.9 | 94 | 76.4 | 70.2 | 52.5 | 39 | 350 (≈ 719 µM) | 85 | 72.2 | zone of inhibition at 500 µg/mL [5]: 15 mm; MIC ([7]; 24 h at 37 °C, read-out: MIC): 31.2 mg/L (≈ 64.2 µM); MIC [14]: 125 mg/L (≈ 257 µM); MIC [8, 19]: 31.2 mg/L (≈ 64.2 µM); viability at 31.25 µg/mL [11]: 58.1%; viability at 62.5 µg/mL [11]: 53.6%; viability at 125 µg/mL [11]: 43.1%; viability at 250 µg/mL [11]: 34%; viability at 500 µg/mL [11]: 30.3%; viability at 1000 µg/mL [11]: 27.9%; IC50 [11]: 95 mg/L (≈ 195 µM); melting point: 105 to 107 °C
4 |  |  | OC(Cn1cncn1)(Cn1cncn1)c1ccc(F)cc1F [fluconazole] |  |  |  |  |  |  |  |  |  |  |  |  |  |  |  |  |  |  | zone of inhibition at 25 µg/mL [15]: 18 mm; zone of inhibition at 25 µg/mL [16]: 18 mm; zone of inhibition at 25 µg/mL [17]: 20 mm
5 | 31.2 (≈ 56.9 µM) | > 500 | O=C1C(Cl)C(c2ccnc3ccccc23)N1c1nc(-c2cc(Cl)cc3c2-c2ccc(Cl)cc2C3)cs1 (centres unmarked) [6n, 3-chloro-1-(4-(2,7-dichloro-9H-fluoren-4-yl)thiazol-2-yl)-4-(quinolin-4-yl)azetidin-2-one] | 19 | 13 | 9 | 96.2 | 89.5 | 86.8 | 81.3 | 73.2 | 67.1 | 59.2 | 98.6 | 85.9 | 53.2 | 43.3 | 39.8 | 212 (≈ 386 µM) | 93.3 | 83.6 | zone of inhibition at 500 µg/mL ([12]; 500 µg/mL of tested compound): 5 mm; zone of inhibition at 500 µg/mL [2]: 5 mm; MIC [14]: 62.5 mg/L (≈ 114 µM); viability at 31.25 µg/mL [11]: 67.9%; viability at 62.5 µg/mL [11]: 64.2%; viability at 125 µg/mL [11]: 52.7%; viability at 250 µg/mL [11]: 43.2%; viability at 500 µg/mL [11]: 39.1%; viability at 1000 µg/mL [11]: 36.3%; IC50 [11]: 159 mg/L (≈ 290 µM); melting point: 175 to 177 °C
6 |  |  | CN[C@H](CC(C)C)C(=O)N[C@H]1C(=O)N[C@@H](CC(N)=O)C(=O)N[C@H]2C(=O)N[C@H]3C(=O)N[C@H](C(=O)N[C@H](C(=O)O)c4cc(O)cc(O)c4-c4cc3ccc4O)[C@H](O)c3ccc(c(Cl)c3)Oc3cc2cc(c3O[C@@H]2O[C@H](CO)[C@@H](O)[C@H](O)[C@H]2O[C@H]2C[C@](C)(N)[C@H](O)[C@H](C)O2)Oc2ccc(cc2Cl)[C@H]1O [Vancomycin, reference compound] |  |  |  |  |  |  |  |  |  |  |  |  |  |  |  |  |  |  | zone of inhibition at 50 µg/mL [4, 21]: 28 mm; zone of inhibition at 50 µg/mL [18]: 20 mm; zone of inhibition at 50 µg/mL [5, 21]: 26 mm; MIC ([7]; 24 h): 0.7 mg/L (≈ 0.483 µM); MIC ([8]; 24 h): 0.7 mg/L (≈ 0.483 µM)
